Key:
[1] = Antiplatelet activity against rabbit platelet assessed as inhibition of platelet-activating factor-induced platelet aggregation at 50 uM preincubated 3 mins before PAF challenge by turbidimetric method relative to control; assay type: functional, Oryctolagus cuniculus; parameters: scale not given: the % may be the effect or the level left
[2] = Antiplatelet activity against rabbit platelet assessed as inhibition of collagen-induced platelet aggregation at 50 uM preincubated 3 mins before collagen challenge by turbidimetric method relative to control; assay type: functional, Oryctolagus cuniculus; parameters: scale not given: the % may be the effect or the level left
[3] = Antiplatelet activity against rabbit platelet assessed as inhibition of arachidonic acid-induced platelet aggregation at 50 uM preincubated 3 mins before arachidonic acid challenge by turbidimetric method relative to control; assay type: functional, Oryctolagus cuniculus; parameters: scale not given: the % may be the effect or the level left
[4] = Antiplatelet activity against rabbit platelet assessed as inhibition of thrombin-induced platelet aggregation at 50 uM preincubated 3 mins before thrombin challenge by turbidimetric method relative to control; assay type: functional, Oryctolagus cuniculus; parameters: scale not given: the % may be the effect or the level left
Brain [5] = assay: Antioxidant activity in Wistar rat brain homogenate assessed as inhibition of Fe2+-induced TBARS formation by lipid peroxidation assay; assay type: functional, tissue-based
[6] = Antiplatelet activity against rabbit platelet assessed as inhibition of platelet-activating factor-induced platelet aggregation at 20 uM preincubated 3 mins before PAF challenge by turbidimetric method relative to control; assay type: functional, cell-based, Oryctolagus cuniculus; parameters: Activity: scale not given: the % may be the effect or the level left; conditions: for IC50: Oryctolagus cuniculus, Platelet
[7] = Antiproliferative activity against PDGF-stimulated rat VSMC assessed as inhibition of [3H]thymidine incorporation into DNA after 20 hrs by liquid scintillation counting relative to control; assay type: functional
[8] = (§1) Antiproliferative activity against 5-HT-stimulated rat VSMC assessed as inhibition of [3H]thymidine incorporation into DNA after 20 hrs by liquid scintillation counting relative to control; assay type: functional
[9] = (§2) Antiproliferative activity against ADP-stimulated rat VSMC assessed as inhibition of [3H]thymidine incorporation into DNA after 20 hrs by liquid scintillation counting relative to control; assay type: functional
[10] = (§3) Antiproliferative activity against FCS-stimulated rat VSMC assessed as inhibition of [3H]thymidine incorporation into DNA after 20 hrs by liquid scintillation counting relative to control; assay type: functional
VSMC [11] = assay: as §1; assay type: functional
VSMC [12] = assay: as §2; assay type: functional
VSMC [13] = assay: as §3; assay type: functional
Brain [14] = assay: Antioxidant activity in Wistar rat brain homogenate assessed as inhibition of Fe2+-induced TBARS formation at 100 uM by lipid peroxidation assay; assay type: functional, tissue-based
[15] = Antiplatelet activity against rabbit platelet assessed as inhibition of platelet-activating factor-induced platelet aggregation at 300 uM preincubated 3 mins before PAF challenge by turbidimetric method relative to control; assay type: functional, Oryctolagus cuniculus; parameters: scale not given: the % may be the effect or the level left
[16] = Antiplatelet activity against rabbit platelet assessed as inhibition of platelet-activating factor-induced platelet aggregation at 100 uM preincubated 3 mins before PAF challenge by turbidimetric method relative to control; assay type: functional, Oryctolagus cuniculus; parameters: scale not given: the % may be the effect or the level left
[17] = Antiplatelet activity against rabbit platelet assessed as inhibition of collagen-induced platelet aggregation at 300 uM preincubated 3 mins before collagen challenge by turbidimetric method relative to control; assay type: functional, Oryctolagus cuniculus; parameters: scale not given: the % may be the effect or the level left
[18] = Antiplatelet activity against rabbit platelet assessed as inhibition of arachidonic acid-induced platelet aggregation at 100 uM preincubated 3 mins before arachidonic acid challenge by turbidimetric method relative to control; assay type: functional, Oryctolagus cuniculus; parameters: scale not given: the % may be the effect or the level left
[19] = Antiplatelet activity against rabbit platelet assessed as inhibition of arachidonic acid-induced platelet aggregation at 300 uM preincubated 3 mins before arachidonic acid challenge by turbidimetric method relative to control; assay type: functional, Oryctolagus cuniculus; parameters: scale not given: the % may be the effect or the level left
[20] = Antiplatelet activity against rabbit platelet assessed as inhibition of thrombin-induced platelet aggregation at 300 uM preincubated 3 mins before thrombin challenge by turbidimetric method relative to control; assay type: functional, Oryctolagus cuniculus; parameters: scale not given: the % may be the effect or the level left
[21] = Antiplatelet activity against rabbit platelet assessed as inhibition of arachidonic acid-induced platelet aggregation at 20 uM preincubated 3 mins before arachidonic acid challenge by turbidimetric method relative to control; assay type: functional, Oryctolagus cuniculus; parameters: scale not given: the % may be the effect or the level left
[22] = Antiplatelet activity against rabbit platelet assessed as inhibition of collagen-induced platelet aggregation at 100 uM preincubated 3 mins before collagen challenge by turbidimetric method relative to control; assay type: functional, Oryctolagus cuniculus; parameters: scale not given: the % may be the effect or the level left
[23] = Antiplatelet activity against rabbit platelet assessed as inhibition of thrombin-induced platelet aggregation at 100 uM preincubated 3 mins before thrombin challenge by turbidimetric method; assay type: functional, Oryctolagus cuniculus; parameters: scale not given: the % may be the effect or the level left

SMILES | Activity [1] [%] | Activity [3] [%] | Activity (Brain [5]) | IC50 [6] [nM] | inhibition (INH) [7] [%] | inhibition (INH) [8] [%] | inhibition (INH) [9] [%] | inhibition (INH) [10] [%] | further results
CC(=O)Oc1ccccc1C(=O)O [ASPIRIN] | 90.5 | 0 |  |  |  |  |  |  | Activity [2]: 85.4%; Activity [4]: 91.9%
CC(C)=CCc1cc2c(cc1O)O/C(=C\c1ccc(O)c(O)c1)C2=O [BROUSSOAURONE A] |  |  | Dose-dependent effect | 1200 |  |  |  |  | 
CC(C)=CCc1c([C@@H]2CCc3ccc(O)cc3O2)cc2c(c1O)OC(C)(C)C(O)C2O (stereo not given in full) [BROUSSOFLAVAN A] |  |  | Dose-dependent effect | 2100 | 258 | 19 | 67 | 39.5 | 
CC(C)=CCc1c(-c2oc3c(CC=C(C)C)c(O)cc(O)c3c(=O)c2O)cc(O)c(O)c1CC=C(C)C [BROUSSOFLAVONOL E] |  |  | Dose-dependent effect | 1000 | 127 | 0 | 0.4 | 0 | Activity (VSMC [11]): Dose-dependent effect; Activity (VSMC [12]): Dose-dependent effect; Activity (VSMC [13]): Dose-dependent effect
CC(C)=CCc1cc(-c2oc3c(CC=C(C)C)c(O)cc(O)c3c(=O)c2O)ccc1O [BROUSSOFLAVONOL F] |  |  | Dose-dependent effect | 2700 | 127 | 0 | 7.8 | 0 | Activity (VSMC [11]): Dose-dependent effect; Activity (VSMC [12]): Dose-dependent effect; Activity (VSMC [13]): Dose-dependent effect
Cc1cc(C(C)(C)C)c(O)c(C(C)(C)C)c1 [BUTYLATED HYDROXYTOLUENE] |  |  |  | 14500 |  |  |  |  | inhibition (Brain [14]): 91.3%
CC(C)=CCc1c(-c2ccc(O)cc2O)oc2c(CC=C(C)C)c(O)cc(O)c2c1=O [KUWANON C] | 67.6 | 60.2 |  |  |  |  |  |  | Activity [15]: 0%; Activity [16]: 26.9%; Activity [17]: 5.5%; Activity [18]: 5.9%; Activity [19]: 0%; Activity [20]: 54.8%; Activity [21]: 83.9%; Activity [6]: 78.8%
CC(C)=CCc1c(-c2ccc(O)cc2O)oc2c3c(cc(O)c2c1=O)OC(C)(C)C=C3 [MORUSIN] | 62.5 | 74.2 |  |  |  |  |  |  | Activity [16]: 0%; Activity [18]: 0%; Activity [22]: 5.3%; Activity [23]: 81.8%; Activity [21]: 82.8%; Activity [6]: 81.3%

From ChEMBL document CHEMBL1158856, “Bioactive constituents of Morus australis and Broussonetia papyrifera” (J Nat Prod, 1997)
